The text below walks through data of patent US20040214834A1, “Pyrazolo-pyridines for the treatment of herpes infections” (priority 2001, published 2004).

By IC50 is commonly meant the point on the concentration scale where inhibition reaches its midpoint. High values mean weaker potency, low ones greater potency.

The subject of this test is HSV-1. Put plainly: HSV-1 replication in infected Vero 76 cells, viral DNA detected by hybridization capture. The format is cell-based, herpes simplex virus 1. The note with it: Human alphaherpesvirus 1; HSV-1, Vero 76 cells, MOI=0.001, 40-48 hours incubation. How it is done: Vero 76 cells were maintained in MEM with Earle's salts, L-glutamine, 8% FBS (Hyclone, A-1111-L) and 100 units/mL Penicillin-100 μg/mL Streptomycin. For assay conditions, FBS was reduced to 2%. Cells are seeded into 96-well tissue culture plates at a density of 5×10^4 cells/well after being incubated for 45 min at 37° C. in the presence of HSV-1 or HSV-2 (MOI=0.001). Test compounds are added to the wells and the plates are incubated at 37° C. for 40-48 hours. Cell lysates are prepared as follows: media was removed and replaced with 150 μL/well 0.2 N NaOH with 1% Igepal CA 630 or NP-40. Plates were incubated up to 14 days at room temperature in a humidified chamber to prevent evaporation.
For the detection probe, a gel-purified, digoxigenin-labeled, 710-bp PCR fragment of the HSV UL-15 sequence was utilized. PCR conditions included 0.5 μM primers, 180 μM dTTP, 20 μM dUTP-digoxigenin (Boehringer Mannheim 1558706), 200 μM each of dATP, dCTP, and dGTP, 1× PCR Buffer II (Perkin Elmer), 2.5 mM MgCl2, 0.025 units/μL of AmpliTaq Gold polymerase (Perkin Elmer), and 5 ng of gel-purified HSV DNA per 100 μL Extension conditions were 10 min at 95° C., followed by 30 cycles of 95° C. for 1 min. 55° C. for 30 sec. and 72° C. for 2 min. The amplification was completed with a 10-min incubation at 72° C. […] Single-stranded transcripts were purified with Promega M13 Wizard kits. The final product was mixed 1:1 with a mixture of 6 M GuSCN, 100 mM EDTA and 200 μg/mL herring sperm DNA and stored at 4° C.
The capture DNA plasmid (HSV UL13 region in pUC) was linearized by cutting with Xbal, denatured for 15 min at 95° C. and diluted immediately into Reacti-Bind DNA Coating Solution (Pierce, 17250, diluted 1:1 with TE buffer, pH 8) at 1 ng/μL. 75 μL/well were added to Corning (#3922 or 9690) white 96-well plates and incubated at room temperature for at least 4 hrs before washing twice with 300 μL/well 0.2×SSC/0.05% Tween-20 (SSC/T buffer). The plates were then incubated overnight at room temperature with 150 μL/well 0.2 N NaOH, 1% IGEPAL and 10 μg/mL herring sperm DNA.
Twenty-seven (27) μL of cell lysate was combined with 45 μL of hybridization solution (final concentration: 3M GuSCN, 50 mM EDTA, 100 μg/ml salmon sperm DNA, 5× Denhardt's solution, 0.25×APE, and 5 ng of the digoxigenin-labeled detection probe). APE is 1.5 M NH4-acetate, 0.15 M ammonium phosphate monobasic, and 5 mM EDTA adjusted to pH 6.0. Mineral oil (50 μL) was added to prevent evaporation. The hybridization plates were incubated at 95° C. for 10 minutes to denature the DNA, then incubated at 42° C. overnight. The wells were washed 6× with 300 μL/well SSC/T buffer then incubated with 75 μL/well anti-digoxigenin- HRP-conjugated antibody (Boehringer Mannheim 1207733, 1:5000 in TE) for 30 min at room temperature. The wells were washed 6× with 300 μL/well with PBS/0.05% Tween-20 before 75 μL/well SuperSignal LBA substrate (Pierce) was added. The plates were incubated at room temperature for 30 minutes and chemiluminescence was measured in a Wallac Victor reader.
The following results were obtained for HSV-1.
The molecule `CCSc1cc(NC2CCCC2)cc2c(-c3ccnc(NC4CCCC4)n3)c(-c3ccc(F)cc3)nn12` [Example 2, N-Cyclopentyl-3-[2-(cyclopentylamino)-4-pyrimidinyl]-7-(ethylsulfanyl)-2-(4-fluorophenyl)pyrazolo[1,5-δ]pyridin-5-amine] yielded an IC50 of 74 nM.

Molecule `Cc1cc(NC2CCCC2)cc2c(-c3ccnc(NC4CCCC4)n3)c(-c3ccc(F)cc3)nn12` [Example 3, N-Cyclopentyl-3-[2-(cyclopentylamino)-4-pyrimidinyl]-2-(4-fluorophenyl)-7-methylpyrazolo[1,5-α]pyridin-5-amine] returned an IC50 of 322 nM.

Take `CCOc1cc(NC2CCCC2)cc2c(-c3ccnc(NC4CCCC4)n3)c(-c3ccc(F)cc3)nn12` [Example 4, N-Cyclopentyl-3-[2-(cyclopentylamino)-4-pyrimidinyl]-7-ethoxy-2-(4-fluorophenyl)pyrazolo[1,5-α]pyridin-5-amine]: half-maximal inhibition (IC50) was put at 160 nM. Against the preceding molecule, the IC50 is about 2-fold lower.

For the molecule `CSc1cc(NC2CCCC2)cc2c(-c3ccnc(NC4CCCC4)n3)c(-c3ccc(F)cc3)nn12` [Example 5, N-Cyclopentyl-3-[2-(cyclopentylamino)-4-pyrimidinyl]-2-(4-fluorophenyl)-7-(methylsulfanyl)pyrazolo[1,5-α]pyridin-5-amine], inhibition was half-maximal at 130 nM (IC50).

For the molecule `COCCOc1cc(NC2CCCC2)cc2c(-c3ccnc(NC4CCCC4)n3)c(-c3ccc(F)cc3)nn12` [Example 6, N-Cyclopentyl-3-[2-(cyclopentylamino)-4-pyrimidinyl]-2-(4-fluorophenyl)-7-(2-methoxyethoxy)pyrazolo[1,5-α]pyridin-5-amine], the IC50 worked out at 82 nM.

`COc1ccc(-c2nn3c(SC)cc(NC4CCCC4)cc3c2-c2ccnc(NC3CCCC3)n2)cc1` [Example 9, N-Cyclopentyl-3-[2-(cyclopentylamino)-4-pyrimidinyl]-2-(4-methoxyphenyl)-7-(methylsulfanyl)pyrazolo[1,5-α]pyridin-5-amine] yielded an IC50 of 135 nM.

Molecule `CCSc1cc(NC2CCCC2)cc2c(-c3ccnc(NC4CCCC4)n3)c(-c3ccc(OC)cc3)nn12` [Example 10, N-Cyclopentyl-3-[2-(cyclopentylamino)-4-pyrimidinyl]-7-(ethylsulfanyl)-2-(4-methoxyphenyl)pyrazolo[1,5-α]pyridin-5-amine] had an IC50 of 46 nM.

Consider `COc1ccc(-c2nn3c(SC(C)C)cc(NC4CCCC4)cc3c2-c2ccnc(NC3CCCC3)n2)cc1` [Example 11, N-Cyclopentyl-3-[2-(cyclopentylamino)-4-pyrimidinyl]-7-(isopropylsulfanyl)-2-(4-methoxyphenyl)pyrazolo[1,5-α]pyridin-5-amine], for which the IC50 was 175 nM. Against the preceding molecule, the IC50 is about 3.8-fold higher.

For `COc1ccc(-c2nn3c(Sc4ccccc4)cc(NC4CCCC4)cc3c2-c2ccnc(NC3CCCC3)n2)cc1` [Example 12, N-Cyclopentyl-3-[2-(cyclopentylamino)-4-pyrimidinyl]-2-(4-methoxyphenyl)-7-(phenylsulfanyl)pyrazolo[1,5-α]pyridin-5-amine], the IC50 turned out to be 2000 nM.

For the molecule `CC(C)Sc1cc(NC2CCCC2)cc2c(-c3ccnc(NC4CCCC4)n3)c(-c3ccc(F)cc3)nn12` [Example 13, N-Cyclopentyl-3-[2-(cyclopentylamino)-4-pyrimidinyl]-2-(4-fluorophenyl)-7-(isopropylsulfanyl)pyrazolo[1,5-α]pyridin-5-amine], the IC50 came out at 260 nM.
